Results: the NIST ThermoML archive (doi:10.1016/j.jct.2005.03.012)
± gives the expanded uncertainty stated by the source.

Experiment: excess molar enthalpy (molar enthalpy of mixing); xn = mol fraction of the nth substance listed
Details: Liquid

`CO` [methanol] + O gave an excess molar enthalpy (422.47 K, 5000 kPa, x1 = 0.9) of 0.0141 ± 0.0012 kcal/mol, an excess molar enthalpy (422.53 K, 5000 kPa, x1 = 0.1) of 0.0114 ± 0.00115 kcal/mol and an excess molar enthalpy (422.8 K, 10000 kPa, x1 = 0.4) of 0.0539 ± 0.00239 kcal/mol. The excess molar enthalpy (422.84 K, 5000 kPa, x1 = 0.4) was 0.0521 ± 0.00237 kcal/mol, the excess molar enthalpy (422.84 K, 5000 kPa, x1 = 0.5) was 0.0547 ± 0.00239 kcal/mol and the excess molar enthalpy (422.86 K, 2000 kPa, x1 = 0.4) was 0.05 ± 0.00229 kcal/mol. It also gave an excess molar enthalpy (423.02 K, 10000 kPa, x1 = 0.6) of 0.0528 ± 0.00237 kcal/mol, an excess molar enthalpy (423.08 K, 2000 kPa, x1 = 0.6) of 0.049 ± 0.00227 kcal/mol and an excess molar enthalpy (423.12 K, 5000 kPa, x1 = 0.6) of 0.0512 ± 0.00232 kcal/mol. It also gave an excess molar enthalpy (423.14 K, 5000 kPa, x1 = 0.7) of 0.0432 ± 0.00208 kcal/mol, an excess molar enthalpy (423.15 K, 2000 kPa, x1 = 0.2) of 0.0278 ± 0.0016 kcal/mol and an excess molar enthalpy (423.15 K, 2000 kPa, x1 = 0.4) of 0.0501 ± 0.00229 kcal/mol. For the same compound, the excess molar enthalpy (423.15 K, 2000 kPa, x1 = 0.6) was 0.0484 ± 0.00225 kcal/mol, the excess molar enthalpy (423.15 K, 2000 kPa, x1 = 0.8) was 0.027 ± 0.00158 kcal/mol and the excess molar enthalpy (423.15 K, 5000 kPa, x1 = 0.1) was 0.0118 ± 0.00124 kcal/mol. The excess molar enthalpy (423.15 K, 5000 kPa, x1 = 0.2) was 0.0287 ± 0.00163 kcal/mol, the excess molar enthalpy (423.15 K, 5000 kPa, x1 = 0.3) was 0.0414 ± 0.00203 kcal/mol and the excess molar enthalpy (423.15 K, 5000 kPa, x1 = 0.4) was 0.0522 ± 0.00237 kcal/mol. The excess molar enthalpy (423.15 K, 5000 kPa, x1 = 0.5) was 0.0549 ± 0.00239 kcal/mol, the excess molar enthalpy (423.15 K, 5000 kPa, x1 = 0.6) was 0.0514 ± 0.00234 kcal/mol and the excess molar enthalpy (423.15 K, 5000 kPa, x1 = 0.7) was 0.0421 ± 0.00206 kcal/mol. It also gave an excess molar enthalpy (423.15 K, 5000 kPa, x1 = 0.8) of 0.0294 ± 0.00165 kcal/mol, an excess molar enthalpy (423.15 K, 5000 kPa, x1 = 0.9) of 0.0143 ± 0.00127 kcal/mol and an excess molar enthalpy (423.15 K, 10000 kPa, x1 = 0.2) of 0.0302 ± 0.00167 kcal/mol. For the same compound, the excess molar enthalpy (423.15 K, 10000 kPa, x1 = 0.4) was 0.0538 ± 0.00239 kcal/mol, the excess molar enthalpy (423.15 K, 10000 kPa, x1 = 0.6) was 0.0531 ± 0.00239 kcal/mol and the excess molar enthalpy (423.15 K, 10000 kPa, x1 = 0.8) was 0.0302 ± 0.00167 kcal/mol. For the same compound, the excess molar enthalpy (423.37 K, 5000 kPa, x1 = 0.3) was 0.0416 ± 0.00203 kcal/mol, the excess molar enthalpy (423.39 K, 5000 kPa, x1 = 0.8) was 0.0299 ± 0.00167 kcal/mol and the excess molar enthalpy (423.49 K, 2000 kPa, x1 = 0.8) was 0.0275 ± 0.0016 kcal/mol. It also gave an excess molar enthalpy (423.62 K, 10000 kPa, x1 = 0.8) of 0.0305 ± 0.0017 kcal/mol, an excess molar enthalpy (423.64 K, 10000 kPa, x1 = 0.2) of 0.0315 ± 0.00172 kcal/mol and an excess molar enthalpy (423.68 K, 5000 kPa, x1 = 0.2) of 0.0299 ± 0.00167 kcal/mol. For the same compound, the excess molar enthalpy (423.69 K, 2000 kPa, x1 = 0.2) was 0.0288 ± 0.00163 kcal/mol, the excess molar enthalpy (423.76 K, 5000 kPa, x1 = 0.9) was 0.0151 ± 0.00124 kcal/mol and the excess molar enthalpy (424.45 K, 5000 kPa, x1 = 0.1) was 0.0132 ± 0.00122 kcal/mol. The excess molar enthalpy (424.96 K, 5000 kPa, x1 = 0.1) was 0.0136 ± 0.00131 kcal/mol, the excess molar enthalpy (424.96 K, 5000 kPa, x1 = 0.2) was 0.0315 ± 0.00172 kcal/mol and the excess molar enthalpy (424.96 K, 5000 kPa, x1 = 0.3) was 0.0442 ± 0.0021 kcal/mol. The excess molar enthalpy (424.96 K, 5000 kPa, x1 = 0.4) was 0.056 ± 0.00239 kcal/mol, the excess molar enthalpy (424.96 K, 5000 kPa, x1 = 0.5) was 0.0586 ± 0.00263 kcal/mol and the excess molar enthalpy (424.96 K, 5000 kPa, x1 = 0.6) was 0.0565 ± 0.00239 kcal/mol. It also gave an excess molar enthalpy (424.96 K, 5000 kPa, x1 = 0.7) of 0.0451 ± 0.00213 kcal/mol, an excess molar enthalpy (424.96 K, 5000 kPa, x1 = 0.8) of 0.0318 ± 0.00172 kcal/mol and an excess molar enthalpy (424.96 K, 5000 kPa, x1 = 0.9) of 0.016 ± 0.00131 kcal/mol. For the same compound, the excess molar enthalpy (425 K, 2000 kPa, x1 = 0.2) was 0.0306 ± 0.0017 kcal/mol, the excess molar enthalpy (425 K, 2000 kPa, x1 = 0.4) was 0.054 ± 0.00239 kcal/mol and the excess molar enthalpy (425 K, 2000 kPa, x1 = 0.6) was 0.0545 ± 0.00239 kcal/mol. For the same compound, the excess molar enthalpy (425 K, 2000 kPa, x1 = 0.8) was 0.0286 ± 0.00163 kcal/mol, the excess molar enthalpy (425.1 K, 10000 kPa, x1 = 0.2) was 0.0334 ± 0.00177 kcal/mol and the excess molar enthalpy (425.1 K, 10000 kPa, x1 = 0.4) was 0.0578 ± 0.00263 kcal/mol. For the same compound, the excess molar enthalpy (425.1 K, 10000 kPa, x1 = 0.6) was 0.0584 ± 0.00263 kcal/mol.
